Tests used:
HL60 = test: MTT assay, antiproliferative activity against HL60 cells; format: cell-based; conditions: Homo sapiens, HL-60, 72 h, mean of at least two determinations
Excerpt: (§1) All synthesized target compounds were firstly tested for their antiproliferative activity against five human cancer cell lines, PC3, A549, HCT116, HL60, and KB, using MTT assay.
(§2) Human prostate cancer PC3 cells, lung adenocarcinoma epithelial A549 cells, colon cancer HCT116 cells, promyelocytic leukemia HL60 cells and nasopharyngeal carcinoma KB cells were obtained from the cell bank of the Institute of Biochemistry and Cell Biology, Chinese Academy of Sciences (Shanghai, China). The inhibitory activity of target compounds against tested cancer cell lines was measured using the MTT assay. PC3, A549, HCT116, HL60, and KB cancer cell lines were cultured in RPMI-1640 medium (Invitrogen, Carlsbad, CA, USA) with heat-inactivated 10% fetal bovine serum, penicillin (100 units/mL) and streptomycin (100 µg/mL) and incubated in an atmosphere with 20% oxygen and 5% carbon dioxide at 37°C. All tested compounds were dissolved in DMSO at concentrations of 10.0 mg/mL and diluted to appropriate concentrations. Cells were plated in 96-well plates for 24 h and subsequently treated with different concentrations of all tested compounds for 72 h. Viable cells were determined using 3-(4,5-dimethylthiazol-2-yl)-2,5-diphenyltetrazolium bromide assay kit (MTT, Sigma) according to operation instructions provided by the manufacturer. The concentration of drug causing 50% inhibition in absorbance compared with control cells (IC50) was calculated using the software of dose-effect analysis with microcomputers.

KB = test: MTT assay, antiproliferative activity against KB cells; format: cell-based; conditions: Homo sapiens, 72 h, mean of at least two determinations
Excerpt: as §1, §2

HCT116 = test: MTT assay, antiproliferative activity against HCT116 cells; format: cell-based; conditions: Homo sapiens, HCT-116, 72 h, mean of at least two determinations
Excerpt: as §1, §2

PC3 = test: MTT assay, antiproliferative activity against PC3 cells; format: cell-based; conditions: Homo sapiens, PC-3, 72 h, mean of at least two determinations
Excerpt: as §1, §2

recombinant human PI3Kα = molecular target: T1, recombinant human PI3Kα (Homo sapiens, UniProt P42336); test: Competitive fluorescence polarization (FP) assay, inhibition of PI3Kα; format: biochemical; conditions: for Binding efficiency index (BEI): BEI = pIC50 (M)/MW (kDa), PI3Kα; for IC50: FP assay, 50 µM ATP, mean of at least two determinations
T1 construct: purchased Echelon Biosciences (Salt Lake City, UT, USA) E-2000
T1 sequence (P42336 whole entry): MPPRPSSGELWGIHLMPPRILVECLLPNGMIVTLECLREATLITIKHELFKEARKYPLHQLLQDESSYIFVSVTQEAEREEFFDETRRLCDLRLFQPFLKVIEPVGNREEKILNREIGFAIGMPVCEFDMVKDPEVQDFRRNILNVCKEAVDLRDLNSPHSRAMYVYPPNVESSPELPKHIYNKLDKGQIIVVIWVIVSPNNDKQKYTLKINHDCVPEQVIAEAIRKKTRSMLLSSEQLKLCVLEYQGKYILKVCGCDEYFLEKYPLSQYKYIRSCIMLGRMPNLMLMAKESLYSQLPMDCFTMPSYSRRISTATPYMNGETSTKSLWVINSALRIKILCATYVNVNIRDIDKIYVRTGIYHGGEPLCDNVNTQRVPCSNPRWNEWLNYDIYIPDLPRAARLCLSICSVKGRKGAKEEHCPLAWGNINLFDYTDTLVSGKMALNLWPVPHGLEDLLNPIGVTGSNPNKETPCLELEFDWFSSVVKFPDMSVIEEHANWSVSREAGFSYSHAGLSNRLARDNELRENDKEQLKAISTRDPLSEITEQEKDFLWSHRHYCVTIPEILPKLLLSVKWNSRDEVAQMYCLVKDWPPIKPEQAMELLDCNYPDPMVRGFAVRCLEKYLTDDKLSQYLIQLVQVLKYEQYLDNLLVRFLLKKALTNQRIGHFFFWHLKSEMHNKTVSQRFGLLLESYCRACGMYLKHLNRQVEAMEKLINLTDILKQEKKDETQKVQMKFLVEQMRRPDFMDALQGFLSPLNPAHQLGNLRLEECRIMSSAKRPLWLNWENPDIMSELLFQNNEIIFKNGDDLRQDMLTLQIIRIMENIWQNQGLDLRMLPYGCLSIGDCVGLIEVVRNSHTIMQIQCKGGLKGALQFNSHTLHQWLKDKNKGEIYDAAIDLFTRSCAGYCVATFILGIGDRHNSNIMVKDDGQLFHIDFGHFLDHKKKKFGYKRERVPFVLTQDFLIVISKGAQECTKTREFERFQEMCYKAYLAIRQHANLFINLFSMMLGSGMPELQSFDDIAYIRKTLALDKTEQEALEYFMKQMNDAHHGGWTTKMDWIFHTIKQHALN
T1 sequence (P27986 whole entry partner): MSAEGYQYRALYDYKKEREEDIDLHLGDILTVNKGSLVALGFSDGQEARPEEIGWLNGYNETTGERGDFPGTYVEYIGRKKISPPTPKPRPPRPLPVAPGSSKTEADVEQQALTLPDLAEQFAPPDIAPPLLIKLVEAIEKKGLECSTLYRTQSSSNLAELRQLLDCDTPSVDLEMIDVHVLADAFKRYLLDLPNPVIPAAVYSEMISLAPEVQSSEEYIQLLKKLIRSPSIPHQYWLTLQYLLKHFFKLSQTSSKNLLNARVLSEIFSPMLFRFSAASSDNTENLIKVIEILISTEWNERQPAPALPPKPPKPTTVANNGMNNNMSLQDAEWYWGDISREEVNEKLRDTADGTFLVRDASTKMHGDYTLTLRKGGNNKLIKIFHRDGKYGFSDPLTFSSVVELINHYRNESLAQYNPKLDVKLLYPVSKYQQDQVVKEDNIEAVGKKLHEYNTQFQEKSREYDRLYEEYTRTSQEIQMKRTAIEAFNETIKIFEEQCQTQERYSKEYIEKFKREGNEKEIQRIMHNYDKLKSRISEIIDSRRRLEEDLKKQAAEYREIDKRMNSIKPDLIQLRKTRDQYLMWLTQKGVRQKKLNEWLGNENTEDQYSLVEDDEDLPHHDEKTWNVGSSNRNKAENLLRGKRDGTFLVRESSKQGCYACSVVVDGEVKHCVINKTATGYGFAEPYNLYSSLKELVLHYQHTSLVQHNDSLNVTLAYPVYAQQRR
Procedure: Selected compounds were then tested for their enzymatic inhibitory activity against PI3Kα using a competitive fluorescence polarization (FP) assay to determine the molecular target of synthesized compounds [21].
The PI3Kα inhibitory test was determined using a competitive fluorescence polarization kinase activity assay. PI3K fluorescence polarization assay kit (catalog No. K-1100) and recombinant human PI3Kα (catalog No. E-2000) were purchased from Echelon Biosciences (Salt Lake City, UT, USA). PI3K reactions were performed in 5 mM HEPES, Ph 7, 2.5 mM MgCl2, 10 mM DTT and 50 µM ATP, using diC8-phosphatidylinositol-4, 5-bisphosphate (PIP2) as the substrate, and the final reaction volumes were 10 µL. For evaluation of the PI3Kα inhibitory activity of target compounds, 50 ng enzyme and 10 µM substate were used per 10 µL reaction volume with the concentrations of inhibitors ranging from 3.2 nM to 10 µM. After incubating for 3 h at room temperature, reactions were quenched by adding chelators. A mixture of phosphoinositide binding protein was added and mixed, followed by the addition of a fluorophore-labeled phosphoinositide tracer. Samples were then mixed in 384-well black Corning nonbinding plates (Corning, NY, USA) and incubated in a dark environment for 1 h to equilibrate. Finally, polarization values were measure using red fluorophores with appropriate filters to determine the extent of enzyme activity in the reaction.

A549 = test: MTT assay, antiproliferative activity against A549 cells; format: cell-based; conditions: Homo sapiens, 72 h, mean of at least two determinations
Excerpt: as §1, §2

| Structure (SMILES) | IC50 (HL60) | IC50 (KB) | IC50 (HCT116) | IC50 (PC3) | Binding efficiency index (BEI) (recombinant human PI3Kα) | IC50 (recombinant human PI3Kα) | IC50 (A549) | melting point |
| --- | --- | --- | --- | --- | --- | --- | --- | --- |
| O=S(=O)(c1ccccc1)c1nc2ccccc2nc1N1CCNCC1 [Compound 19, 2-(Piperazin-1-yl)-3-(phenylsulfonyl)quinoxaline] | 0.11 µM | 8.27 µM | 0.99 µM | 0.9 µM | 19.0 | 0.19 µM | 12.8 µM |  |
| O=C(c1ccccc1)N1CCN(c2nc3ccccc3nc2S(=O)(=O)c2ccc(F)cc2)CC1 [Compound 33, 2-(4-Benzoylpiperazin-1-yl)-3-(4-fluorophenylsulfonyl)quinoxaline] | 6.95 µM | 1.22 µM | 8.88 µM | 1.77 µM |  |  | 1.16 µM | 200 to 202 °C |
| O=C(c1ccc(Cl)cc1)N1CCN(c2nc3ccccc3nc2S(=O)(=O)c2ccc(Br)cc2)CC1 [Compound 37, 2-(4-(4-Chlorobenzoyl)piperazin-1-yl)-3-(4-bromophenylsulfonyl)quinoxaline] | 6.11 µM | 5.09 µM | 10.6 µM | 2.89 µM |  |  | > 50 µM | 214 to 216 °C |
| O=C(c1ccc(Cl)cc1)N1CCN(c2nc3ccccc3nc2S(=O)(=O)c2ccc(F)cc2)CC1 [Compound 38, 2-(4-(4-Chlorobenzoyl)piperazin-1-yl)-3-(4-fluorophenylsulfonyl)quinoxaline] | 4.44 µM | 1.88 µM | 8.75 µM | 4.05 µM |  |  | 17.7 µM | 214 to 215 °C |
| CS(=O)(=O)N1CCN(c2nc3ccccc3nc2S(=O)(=O)c2ccccc2)CC1 [Compound 39, 2-(4-(Methylsulfonyl)piperazin-1-yl)-3-(phenylsulfonyl)quinoxaline] |  |  | 1.21 µM | 1.07 µM | 13.6 | 1.34 µM | 2.37 µM | 182 to 185 °C |
| CS(=O)(=O)N1CCN(c2nc3ccccc3nc2S(=O)(=O)c2ccc(Br)cc2)CC1 [Compound 42, 2-(4-(Methylsulfonyl)piperazin-1-yl)-3-(4-bromophenylsulfonyl)quinoxaline] |  |  | 0.41 µM | 1.95 µM | 12.4 | 0.44 µM | 1.32 µM | 194 to 196 °C |
| COc1ccc(S(=O)(=O)c2nc3ccccc3nc2N2CCN(S(=O)(=O)c3ccc(C)cc3)CC2)cc1 [Compound 46, 2-(4-(4-Methylphenylsulfonyl)piperazin-1-yl)-3-(4-methoxyphenylsulfonyl)-quinoxaline] | 15 µM | 2.35 µM | 14.2 µM | 6.2 µM |  |  | > 50 µM | 172 to 175 °C |
| Cc1ccc(S(=O)(=O)N2CCN(c3nc4ccccc4nc3S(=O)(=O)c3ccc(Br)cc3)CC2)cc1 [Compound 47, 2-(4-(4-Methylphenylsulfonyl)piperazin-1-yl)-3-(4-bromophenylsulfonyl)-quinoxaline] | 10.3 µM | 2.73 µM | 5.07 µM | 4.89 µM |  |  | 19.5 µM | 214 to 216 °C |
| O=S(=O)(c1ccccc1)c1nc2ccccc2nc1N1CCN(CCCN2CCOCC2)CC1 [Compound 49, 2-(4-(3-Morpholinopropyl)piperazin-1-yl)-3-(phenylsulfonyl)quinoxaline] |  |  | 0.65 µM | 5.12 µM | 14.0 | 0.18 µM | 0.73 µM |  |
| O=S(=O)(c1ccccc1)c1nc2ccccc2nc1N1CCOCC1 [WR1, reference compound] | 4.47 µM |  | 5.35 µM | 18.9 µM | 17.9 |  | 12.6 µM |  |
| O=S(=O)(c1ccc(Br)cc1)c1nc2ccccc2nc1N1CCC(O)CC1 [WR23, reference compound] |  |  |  |  | 17.0 |  |  |  |

Results, then the compound that gave them:

| IC50 (HL60) | IC50 (KB) | IC50 (HCT116) | IC50 (PC3) | Binding efficiency index (BEI) (recombinant human PI3Kα) | IC50 (recombinant human PI3Kα) | IC50 (A549) | melting point | Structure (SMILES) |
| --- | --- | --- | --- | --- | --- | --- | --- | --- |
| 0.15 µM | 8.73 µM | 0.68 µM | 1.44 µM | 19.7 | 0.059 µM | 1.36 µM |  | CC1CN(c2nc3ccccc3nc2S(=O)(=O)c2ccccc2)CCN1 (stereo not shown) [Compound 24, 2-(3-Methylpiperazin-1-yl)-3-(phenylsulfonyl)quinoxaline] |
| 6.09 µM | 2.84 µM | 9.84 µM | 3.61 µM |  |  | 21.6 µM | 188 to 190 °C | Cc1ccc(S(=O)(=O)c2nc3ccccc3nc2N2CCN(C(=O)c3ccc(Cl)cc3)CC2)cc1 [Compound 35, 2-(4-(4-Chlorobenzoyl)piperazin-1-yl)-3-(4-methylphenylsulfonyl)quinoxaline] |
| 5.58 µM | 6.03 µM | 9.62 µM | 2.43 µM |  |  | > 50 µM | 179 °C | COc1ccc(S(=O)(=O)c2nc3ccccc3nc2N2CCN(C(=O)c3ccc(Cl)cc3)CC2)cc1 [Compound 36, 2-(4-(4-Chlorobenzoyl)piperazin-1-yl)-3-(4-methoxyphenylsulfonyl)quinoxaline] |
|  |  | 1.07 µM | 5.35 µM |  | 0.46 µM | 1.93 µM |  | Cc1ccc(S(=O)(=O)c2nc3ccccc3nc2N2CCN(S(C)(=O)=O)CC2)cc1 [Compound 40, 2-(4-(Methylsulfonyl)piperazin-1-yl)-3-(4-methylphenylsulfonyl)quinoxaline] |
| 9.28 µM | 2.68 µM | 1.92 µM | 3.48 µM |  |  | 49.5 µM | 174 to 175 °C | Cc1ccc(S(=O)(=O)c2nc3ccccc3nc2N2CCN(S(=O)(=O)c3ccc(C)cc3)CC2)cc1 [Compound 45, 2-(4-(4-Methylphenylsulfonyl)piperazin-1-yl)-3-(4-methylphenylsulfonyl)-quinoxaline] |
| 9.48 µM | 5.17 µM | 3.76 µM | 3.39 µM |  |  | 48.2 µM | 172 to 174 °C | Cc1ccc(S(=O)(=O)N2CCN(c3nc4ccccc4nc3S(=O)(=O)c3ccc(F)cc3)CC2)cc1 [Compound 48, 2-(4-(4-Methylphenylsulfonyl)piperazin-1-yl)-3-(4-fluorophenylsulfonyl)-quinoxaline] |
|  |  | 0.22 µM | 1.19 µM | 11.9 | 0.2 µM | 0.34 µM |  | O=S(=O)(c1ccc(Br)cc1)c1nc2ccccc2nc1N1CCN(CCCN2CCOCC2)CC1 [Compound 52, 2-(4-(3-Morpholinopropyl)piperazin-1-yl)-3-(4-bromophenylsulfonyl)quinoxaline] |

Source: PMC3419191, “Identification of Novel Piperazinylquinoxaline Derivatives as Potent Phosphoinositide 3-Kinase (PI3K) Inhibitors” (PLoS ONE, 2012)
